Patent publication US3931217A, “2,3-Dihydro-5-alkoxy-5-phenyl-5H-imidazo[2,1-a]isoindoles” (Hoffmann-La Roche Inc., priority 1974, dated 1976)

Tests used:
LD50 of Example 21 = conditions: in vivo, iv; species not given
mice = test: direct-acting stimulant / psychostimulant effect in animals such as mice; format: in vivo; conditions: similarly tested; result in words
Procedure: As has been indicated hereinabove the novel end products of this invention, i.e., the compounds of the formula I and their pharmaceutically acceptable acid addition salts and the compounds of formula II-d and their pharmaceutically acceptable acid addition salts, are useful as psychostimulants. When administered, for example, orally, to animals such as mice they produce a direct-acting stimulant effect of long duration in single doses in amounts ranging from 0.03 mg/kg to 50 mg/kg. […] Exp. Path. and Pharm., Vol. 140, page 237). The compounds of this invention have psychostimulant effects qualitatively similar in many respects to those of imipramine and amphetamine which are well known for their therapeutic uses and properties.

[1] = acute toxicity (LD50) in mice; conditions: mouse, in vivo
dogs = test: blood pressure in dogs; format: in vivo; conditions: 4 mg/kg i.v.
Procedure: (§1) In addition to their use as psychostimulants, the compounds of formulas I and II-d are also useful as analgesic agents. […] For example, 2-(2-benzoylphenyl)-2-imidazoline in dogs at 4 mg/kg i.v. produced an increase in blood pressure of 10 mm. Hg after 2 minutes followed by gradual increase to 25 mm. Hg.

animals = test: analgesic properties in standard pharmacological tests in animals; format: in vivo; conditions: result in words
Procedure: as §1

SMILES: OC1(c2ccccc2)c2ccccc2C2=NCCCCN21 (centres unmarked) [Example 21, 2,3,4,5-tetrahydro-7-hydroxy-7-phenyl-7H-diazepino[2,1-a]isoindole]
- LD50 (LD50 of Example 21): 40 mg/kg

SMILES: COC1(c2ccccc2)c2ccccc2C2=NCCN21 (centres unmarked) [2,3-dihydro-5-methoxy-5-phenyl-5H-imidazo[2,1-a]isoindole]
- test result compared with 2-(2-benzoylphenyl)-2-imidazoline (mice): qualitatively similar to 2-(2-benzoylphenyl)-2-imidazoline

SMILES: COc1ccc(C(=O)c2ccccc2C2=NCCN2)cc1 [Example 16, 2-[2'-(4-anisoyl)phenyl]-2-imidazoline]
- test result compared with 2-(2-benzoylphenyl)-2-imidazoline (mice): qualitatively similar to 2-(2-benzoylphenyl)-2-imidazoline

SMILES: O=C(c1ccc(Cl)cc1)c1ccccc1C1=NCCN1 [Example 15, 2-[2'-(4-chlorobenzoyl)phenyl]-2-imidazoline]
- test result compared with 2-(2-benzoylphenyl)-2-imidazoline (mice): qualitatively similar to 2-(2-benzoylphenyl)-2-imidazoline

SMILES: O=C(c1ccccc1)c1ccccc1C1=NCCN1 [Example 10, 2-(2-benzoylphenyl)-2-imidazoline]
- LD50 ([1]; ip): 77 mg/kg
- LD50 ([1]; iv): 37 mg/kg
- LD50 ([1]; po): 200 mg/kg
- LD50 ([1]; sc): 130 mg/kg
- increase in blood pressure (dogs; after 2 minutes): 10 mm. Hg
- gradual increase in blood pressure (dogs; following the 2-minute value): 25 mm. Hg
- analgesic properties compared with phenylbutazone (animals): can be likened to the analgesic properties of phenylbutazone
